In US6818662B2, “Pharmaceutical composition” (Taisho Pharmaceutical Co., Ltd., priority 2002, dated 2004):
≈ marks a conversion by molar mass, not a printed value.

Columns and labels:
Format in all cases: physicochemical
[1] = Stability in acidic solution
From the text: (§1) The present invention can be disclosed in more detail as follows. Since N-(3-chloro-4-morpholin-4-yl)phenyl-N′-hydroxyimidoformamidine was unstable in an acidic solution, solubilization by forming it into an acidic salt thereof was not proper. Furthermore, the solubility of N-(3-chloro-4-morpholin-4-yl)phenyl-N′-hydroxyimidoformamidine in 5% Tween 80, 10% polyethylene glycol, soybean oil and olive oil, which were used for forming it into micelles, co-solvents and lipid emulsion preparations, was not more than 0.5 mg/mL at 25° C. and was insufficient for forming it into these micelles, co-solvents and lipid emulsion preparations. […] Based on this unpredictable finding in which in the case of the sulfobutyl ether β-cyclodextrin solution, the drug is stable over light exposure and thus, it is convenient for actual use without a special care such as shading, the present invention has been accomplished.

[2] = Solubilization test; conditions: 25° C.
Description: An excess amount of N-(3-chloro-4-morpholin-4-yl)phenyl-N′-hydroxyimidoformamidine was added to 10% and 20% aqueous solutions of sulfobutyl ether β-cyclodextrin sodium salt (Captisol (trade name); average substitution degree is about 7) and purified water as a control, respectively. After shaking on a water bath adjusted at 25° C. for one day, the solubility of the drug was measured.

[3] = Solubility in vehicles for micelles, co-solvents and lipid emulsion preparations
From the text: as §1

Compound: ON=CNc1ccc(N2CCOCC2)c(Cl)c1 [N-(3-chloro-4-morpholin-4-yl)phenyl-N′-hydroxyimidoformamidine]
- stability in an acidic solution [1]: unstable
- solubility ([2]; 10% aqueous solution of sulfobutyl ether β-cyclodextrin sodium salt): 3570 µg/mL
- solubility ([2]; 20% aqueous solution of sulfobutyl ether β-cyclodextrin sodium salt): 7670 µg/mL
- solubility ([2]; purified water (control), shaking one day): 80 µg/mL (≈ 313 µM)
- solubility ([3]; 5% Tween 80, 25° C.): not more than 0.5 mg/mL
- solubility ([3]; 10% polyethylene glycol, 25° C.): not more than 0.5 mg/mL
- solubility ([3]; olive oil, 25° C.): not more than 0.5 mg/mL
- solubility ([3]; soybean oil, 25° C.): not more than 0.5 mg/mL
